Data: PubChem BioAssay AID1963852 (Molecular Pharmacology Branch, DTP, NCI, 2024)

System: 282377-053-R-J1-PDC complex spheroid viability
Experiment: Anticancer human tumor 282377-053-R-J1-PDC patient-derived colon adenocarcinoma cell line growth inhibition [POLQ]
Details: for IC50: curve of first compound; for viability, T/C: stronger effect = lower value
Outline: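 Growth inhibition in 3D: complex spheroids (tumor PDC, HUVEC, MSC) treated with POLQ inhibitor combinations; where Cmax unknown, highest tested concentration 10 microM, except SN-38 at 1 microM.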

[1] = second compound 0.0316 µM, first compound 0.0316 µM
[2] = second compound 0.0316 µM, first compound 0.1 µM
[3] = second compound 0.0316 µM, first compound 0.316 µM
[4] = second compound 0.0316 µM, first compound 1 µM
[5] = second compound 0.0316 µM, first compound 3.16 µM
[6] = second compound 0.0316 µM, first compound 10 µM
[7] = second compound 0.1 µM, first compound 0.0316 µM
[8] = second compound 0.1 µM, first compound 0.1 µM
[9] = second compound 0.1 µM, first compound 0.316 µM
[10] = second compound 0.1 µM, first compound 1 µM
[11] = second compound 0.1 µM, first compound 3.16 µM
[12] = second compound 0.1 µM, first compound 10 µM
[13] = second compound 0.316 µM, first compound 0.0316 µM
[14] = second compound 0.316 µM, first compound 0.1 µM
[15] = second compound 0.316 µM, first compound 0.316 µM
[16] = second compound 0.316 µM, first compound 1 µM
[17] = second compound 0.316 µM, first compound 3.16 µM
[18] = second compound 0.316 µM, first compound 10 µM
[19] = second compound 1 µM, first compound 0.0316 µM
[20] = second compound 1 µM, first compound 0.1 µM
[21] = second compound 1 µM, first compound 0.316 µM
[22] = second compound 1 µM, first compound 1 µM
[23] = second compound 1 µM, first compound 3.16 µM
[24] = second compound 1 µM, first compound 10 µM
[25] = second compound 3.16 µM, first compound 0.0316 µM
[26] = second compound 3.16 µM, first compound 0.1 µM
[27] = second compound 3.16 µM, first compound 0.316 µM
[28] = second compound 3.16 µM, first compound 1 µM
[29] = second compound 3.16 µM, first compound 3.16 µM
[30] = second compound 3.16 µM, first compound 10 µM
[31] = second compound 10 µM, first compound 0.0316 µM
[32] = second compound 10 µM, first compound 0.1 µM
[33] = second compound 10 µM, first compound 0.316 µM
[34] = second compound 10 µM, first compound 1 µM
[35] = second compound 10 µM, first compound 3.16 µM
[36] = second compound 10 µM, first compound 10 µM
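Note: spheroids exposed to compounds for seven days.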
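Throughout, for viability, T/C: 100% = DMSO vehicle control viability.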

COc1cc(C2c3cc4c(cc3C(OC3OC5COC(C)OC5C(O)C3O)C3COC(=O)C23)OCO4)cc(OC)c1O (stereo unspecified) + COC1C(OC(N)=O)C(O)C(Oc2ccc3c(O)c(NC(=O)c4ccc(O)c(CC=C(C)C)c4)c(=O)oc3c2C)OC1(C)C
IC50 (second compound 0.0316 µM): > 10000 nM | IC50 (second compound 0.1 µM): > 10000 nM | IC50 (second compound 0.316 µM): 9290 nM | IC50 (second compound 1 µM): 8390 nM | IC50 (second compound 3.16 µM): > 10000 nM | IC50 (second compound 10 µM): > 10000 nM | viability, T/C [1]: 95.7% | viability, T/C [2]: 111% | viability, T/C [3]: 97.1% | viability, T/C [4]: 80% | viability, T/C [5]: 78.3% | viability, T/C [6]: 49.5% | viability, T/C [7]: 75.8% | viability, T/C [8]: 92.8% | viability, T/C [9]: 102% | viability, T/C [10]: 90.7% | viability, T/C [11]: 67.9% | viability, T/C [12]: 53.5% | viability, T/C [13]: 101% | viability, T/C [14]: 80.1% | viability, T/C [15]: 85.3% | viability, T/C [16]: 77% | viability, T/C [17]: 73.8% | viability, T/C [18]: 46% | viability, T/C [19]: 89% | viability, T/C [20]: 86.8% | viability, T/C [21]: 86% | viability, T/C [22]: 81.1% | viability, T/C [23]: 77.3% | viability, T/C [24]: 45% | viability, T/C [25]: 76.5% | viability, T/C [26]: 96.1% | viability, T/C [27]: 97.2% | viability, T/C [28]: 89.8% | viability, T/C [29]: 70.1% | viability, T/C [30]: 51.7% | viability, T/C [31]: 87.4% | viability, T/C [32]: 83.2% | viability, T/C [33]: 118% | viability, T/C [34]: 68.5% | viability, T/C [35]: 70.3% | viability, T/C [36]: 53%

CC1COCCN1c1cc(C2(O)CC3CCC(C2)O3)c2cnn(-c3ccn[nH]3)c2n1 (stereo unspecified) + Cc1cccc(N(C)C(=O)C2C(O)CCN2c2nc(C)cc(C(F)(F)F)c2C#N)c1
IC50 (second compound 0.0316 µM): 524 nM | IC50 (second compound 0.1 µM): 300 nM | IC50 (second compound 0.316 µM): 242 nM | IC50 (second compound 1 µM): 489 nM | IC50 (second compound 3.16 µM): 230 nM | IC50 (second compound 10 µM): 302 nM | viability, T/C [1]: 106% | viability, T/C [2]: 74.9% | viability, T/C [3]: 67.9% | viability, T/C [4]: 33% | viability, T/C [5]: 25.5% | viability, T/C [6]: 16.7% | viability, T/C [7]: 83.8% | viability, T/C [8]: 83.6% | viability, T/C [9]: 48.4% | viability, T/C [10]: 28.1% | viability, T/C [11]: 30.4% | viability, T/C [12]: 21.9% | viability, T/C [13]: 78.9% | viability, T/C [14]: 68.3% | viability, T/C [15]: 44.6% | viability, T/C [16]: 27.3% | viability, T/C [17]: 29.2% | viability, T/C [18]: 19.8% | viability, T/C [19]: 80.7% | viability, T/C [20]: 79.2% | viability, T/C [21]: 54% | viability, T/C [22]: 37.2% | viability, T/C [23]: 27% | viability, T/C [24]: 13.9% | viability, T/C [25]: 78.7% | viability, T/C [26]: 55.2% | viability, T/C [27]: 49% | viability, T/C [28]: 30% | viability, T/C [29]: 31.2% | viability, T/C [30]: 13.6% | viability, T/C [31]: 76% | viability, T/C [32]: 66.1% | viability, T/C [33]: 49.2% | viability, T/C [34]: 30.9% | viability, T/C [35]: 31.6% | viability, T/C [36]: 14.4%

Nc1ccn(C2OC(CO)C(O)C2(F)F)c(=O)n1 (stereo unspecified) + Cc1cccc(N(C)C(=O)C2C(O)CCN2c2nc(C)cc(C(F)(F)F)c2C#N)c1
IC50 (second compound 0.0316 µM): 98.1 nM | IC50 (second compound 0.1 µM): 95.7 nM | IC50 (second compound 0.316 µM): 94.7 nM | IC50 (second compound 1 µM): 100 nM | IC50 (second compound 3.16 µM): 115 nM | IC50 (second compound 10 µM): 111 nM | viability, T/C [1]: 84% | viability, T/C [2]: 45.3% | viability, T/C [3]: 35.2% | viability, T/C [4]: 23.9% | viability, T/C [5]: 17.8% | viability, T/C [6]: 13.6% | viability, T/C [7]: 101% | viability, T/C [8]: 46.8% | viability, T/C [9]: 30.3% | viability, T/C [10]: 23.1% | viability, T/C [11]: 23.2% | viability, T/C [12]: 16% | viability, T/C [13]: 81.7% | viability, T/C [14]: 47% | viability, T/C [15]: 31.9% | viability, T/C [16]: 25.9% | viability, T/C [17]: 18.2% | viability, T/C [18]: 16.6% | viability, T/C [19]: 84.5% | viability, T/C [20]: 45.5% | viability, T/C [21]: 32.7% | viability, T/C [22]: 30.4% | viability, T/C [23]: 21.7% | viability, T/C [24]: 10.5% | viability, T/C [25]: 92.5% | viability, T/C [26]: 50.9% | viability, T/C [27]: 31.8% | viability, T/C [28]: 30.2% | viability, T/C [29]: 24.6% | viability, T/C [30]: 13.9% | viability, T/C [31]: 74.9% | viability, T/C [32]: 48.6% | viability, T/C [33]: 38.2% | viability, T/C [34]: 25% | viability, T/C [35]: 20.8% | viability, T/C [36]: 12.3%
